# Measured values from PubChem BioAssay (NCI).
#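 How tested: cells in 96-well plates exposed to compound for 48 hours at five concentrations. Here, GI50 denotes the concentration required for 50% inhibition of growth. The concentration for full growth arrest is given as TGI.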
# Columns and labels:
# Experiment in all cases: DTP human tumour cell line panel, 48 h
# [1] = test system: SF-295 CNS
# [2] = test system: HCT-15 colon
# [3] = test system: HT29 colon
# [4] = test system: RPMI-8226 leukemia
# [5] = test system: M14 melanoma
# [6] = test system: HL-60(TB) leukemia
# [7] = test system: SNB-19 CNS
# [8] = test system: SW-620 colon
# [9] = test system: UO-31 renal
# [10] = test system: MDA-N
SMILES,TGI [1] [µM],TGI [2] [µM],TGI [3] [µM],TGI [4] [µM],TGI [5] [µM],TGI [6] [µM],TGI [7] [µM],TGI [8] [µM],TGI [9] [µM],TGI [10] [µM],GI50 [2] [µM],GI50 [3] [µM],GI50 [4] [µM],GI50 [6] [µM],GI50 [5] [µM]
CC(C)(CO)NC(=O)c1cccs1,> 100,> 100,> 100,> 100,> 100,> 100,> 100,> 100,> 100,,,,,,
CC(=O)N1CCN(CCCCN2c3ccccc3Sc3cc(N=[N+]=[N-])ccc32)CC1,31.5,28.1,27.8,29.1,,27.3,29.6,29.3,23.5,30.5,,,,,
COc1ccc(C2NC3=C(CCCC3)N2)cc1,> 100,> 100,> 100,> 100,> 100,66,,,> 100,,,,,,
N#Cc1c(O)c(C=O)c(=O)n2c1[nH]c1ccccc12,> 100,> 100,> 100,> 100,> 100,,> 100,> 100,> 100,> 100,,,,,
COc1cc(C(=O)N(C(=O)N2CCCCC2)c2ccccc2)cc(OC)c1OC,> 100,> 100,,> 100,> 100,,> 100,> 100,> 100,> 100,,,,,
COc1cc(/C=C/c2ccc(S(N)(=O)=O)cc2)cc(OC)c1,55.5,53.5,33.2,31.5,> 100,42.6,> 100,,52,56,17.4,16.2,14.3,18.6,
Nc1ccn(CCCC(c2ccccc2)P(=O)(O)O)c(=O)n1 (stereo unspecified),> 100,> 100,> 100,> 100,> 100,> 100,> 100,> 100,> 100,,,,,,
CC1(C)OC2OC(C(=O)c3ccccc3)C3OC(C)(C)OC3C2O1 (stereo unspecified),> 100,> 100,,> 100,> 100,> 100,> 100,> 100,> 100,> 100,,,,,
COc1ccc(N2C(=O)C3C=CC(n4[nH]c(=O)n(Cc5ccccc5)c4=O)CC3C2=O)cc1 (stereo unspecified),> 100,> 100,> 100,> 100,> 100,> 100,> 100,> 100,> 100,,,,,,
CCOC(=O)C1=C(O)c2ccc(OC)cc2C(=O)C1=O,> 100,> 100,> 100,> 100,> 100,> 100,> 100,> 100,> 100,,,,,,
CNC(=O)c1cc(Oc2cccc3nc(NC(=O)Nc4ccc(F)cc4F)ccc23)ccn1,,> 50,,> 50,> 50,,,,,,0.302,,2.2,,1.89
COc1ccc(Oc2nc3c(N)cc(C(F)(F)F)cc3nc2-c2ccccc2)cc1,41.2,> 100,22.8,> 100,41.3,> 100,> 100,> 100,> 100,,,,,,
